The target of one experiment is CDK1/Cyclin B1 (Homo sapiens (Human), UniProt P06493). As to the kind of experiment: CDK1/Cyclin B1 ADP-Glo Kinase Assay. Conditions: ADP-Glo, 80 uM ATP; read-out: CDK1 Cyclin B1 IC50. In kind it is biochemical. An outline of the steps: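 Enzyme and inhibitor pre-incubated 30 min at room temperature before ATP/substrate addition; reaction run 90 min at room temperature. ADP formed measured by ADP-Glo luminescence; IC50 from a 4-parameter fit of fractional velocity versus inhibitor concentration.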
Chain of CDK1/Cyclin B1 (P06493 whole entry): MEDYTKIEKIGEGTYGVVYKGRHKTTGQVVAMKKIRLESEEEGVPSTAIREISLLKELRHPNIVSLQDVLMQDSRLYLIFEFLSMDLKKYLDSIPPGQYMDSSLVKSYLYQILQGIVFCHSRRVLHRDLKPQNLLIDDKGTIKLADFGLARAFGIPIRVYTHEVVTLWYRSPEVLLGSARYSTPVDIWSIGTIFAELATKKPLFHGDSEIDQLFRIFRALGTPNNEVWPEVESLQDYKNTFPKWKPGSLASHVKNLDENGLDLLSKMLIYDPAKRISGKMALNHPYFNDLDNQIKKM
Chain of CDK1/Cyclin B1 (P14635 whole entry partner): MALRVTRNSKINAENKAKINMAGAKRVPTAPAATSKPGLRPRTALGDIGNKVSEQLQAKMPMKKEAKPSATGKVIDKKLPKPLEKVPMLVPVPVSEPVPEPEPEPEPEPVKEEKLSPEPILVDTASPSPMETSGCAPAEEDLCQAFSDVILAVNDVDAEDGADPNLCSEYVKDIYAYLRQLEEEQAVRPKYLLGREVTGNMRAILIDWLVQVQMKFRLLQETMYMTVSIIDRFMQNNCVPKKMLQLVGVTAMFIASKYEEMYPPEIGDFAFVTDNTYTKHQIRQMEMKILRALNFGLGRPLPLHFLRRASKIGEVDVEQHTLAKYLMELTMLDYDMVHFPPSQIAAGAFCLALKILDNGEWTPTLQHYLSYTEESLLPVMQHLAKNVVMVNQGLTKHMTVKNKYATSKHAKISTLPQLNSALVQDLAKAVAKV
In general terms: In ADP-Glo the light output rises with the ADP produced.

A further experiment deals with CDK2/Cyclin E1 (Homo sapiens (Human), UniProt P24941). As to the kind of experiment: CDK2/Cyclin E1 Full length ADP-Glo Kinase Assay. The class given is biochemical. The conditions noted are these: 20 uM ATP, read-out: CDK2/ CyclinE1 IC50. An outline of the steps: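 Full-length human CDK2/cyclin E1 was preincubated 30 min at room temperature with inhibitor, then reacted 90 min with ATP-containing substrate solution. ADP formed was measured by ADP-Glo luminescence; IC50 from 4-parameter fit of fractional velocity versus inhibitor concentration.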

Experiment [1] deals with T1, CDK4/Cyclin D1 (Homo sapiens (Human), UniProt P11802). In words: CDK4/Cyclin D1 Mobility Shift Assay (MSA). In kind it is biochemical. Conditions: 0.2 mM ATP, read-out: CDK4/ CyclinD1 MSA IC50. An excerpt: CDK4/Cyclin D1 Mobility Shift Assay (MSA)
T1 sequence (P11802 whole entry): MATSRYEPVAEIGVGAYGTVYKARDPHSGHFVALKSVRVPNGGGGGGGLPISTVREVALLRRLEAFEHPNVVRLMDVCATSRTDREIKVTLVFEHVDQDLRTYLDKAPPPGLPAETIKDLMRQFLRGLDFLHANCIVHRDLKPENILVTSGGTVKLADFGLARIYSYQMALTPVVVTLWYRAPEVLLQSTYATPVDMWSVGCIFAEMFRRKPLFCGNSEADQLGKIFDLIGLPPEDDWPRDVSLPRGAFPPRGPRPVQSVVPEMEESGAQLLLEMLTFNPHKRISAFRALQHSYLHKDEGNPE
T1 sequence (P24385 whole entry partner): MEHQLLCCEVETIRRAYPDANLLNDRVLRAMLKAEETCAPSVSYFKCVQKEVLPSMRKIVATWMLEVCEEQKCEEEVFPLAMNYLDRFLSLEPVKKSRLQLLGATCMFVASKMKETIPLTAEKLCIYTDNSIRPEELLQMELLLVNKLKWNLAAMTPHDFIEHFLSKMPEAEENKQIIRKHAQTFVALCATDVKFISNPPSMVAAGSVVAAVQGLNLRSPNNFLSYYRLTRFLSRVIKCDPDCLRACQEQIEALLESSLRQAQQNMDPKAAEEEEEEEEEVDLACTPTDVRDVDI
The purpose CDK4/Cyclin D1 assay is to evaluate the inhibition (% inhibition and IC50 values) in the presence of small molecule inhibitors by using a fluorescence based microfluidic mobility shift assay. CDK4/Cyclin D1 catalyzes the production of ADP from ATP that accompanies the phosphoryl transfer to the substrate peptide 5-FAM-Dyrktide (5-FAM-[…]) (Perkin Elmer Peptide 34). The mobility shift assay (MSA) electrophoretically separates the fluorescently labelled peptides (substrate and phosphorylated product) following the kinase reaction. Both substrate and product are measured, and the ratio of these values is used to generate % conversion of substrate to product by the LabChip EZ Reader. Typical reaction solutions contained 2% DMSO (+/− inhibitor), 10 mM MgCl2, 1 mM EGTA, 0.05% BSA, 2 mM DTT, 0.2 mM ATP, 0.01% Brig-35, 1.5 uM 5-FAM-Dyrktide, 2.5 nM CDK4/Cyclin D1 in 50 mM HEPES buffer at pH 7.5. The reaction was initiated with the addition of substrate solution, following a 30-minute pre-incubation of enzyme and inhibitor at 22° C. in the reaction mix. The reaction was stopped after 180 minutes by the addition of 75 uL of 500 mM EDTA and measured on a Perkin Elmer EZ reader instrument. IC50 determinations were made from a plot of the fractional velocity as a function of inhibitor concentration fit to the 4 parameters IC50 equation.

In another experiment the target is CDK6/Cyclin D3 (Homo sapiens (Human), UniProt Q00534). As to the kind of experiment: CDK6/Cyclin D3 ADP-Glo Kinase Assay. In kind it is biochemical. Conditions: 100 uM ATP, read-out: CDK6/ CyclinD3 IC50. The gist of the method: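 Enzyme and inhibitor were pre-incubated for 30 min at room temperature before ATP/substrate was added. The kinase reaction ran 90 min at room temperature, and ADP formed was detected by ADP-Glo luminescence. IC50 was fitted with a 4-parameter equation to fractional velocity versus inhibitor concentration.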
Chain of CDK6/Cyclin D3 (Q00534 whole entry): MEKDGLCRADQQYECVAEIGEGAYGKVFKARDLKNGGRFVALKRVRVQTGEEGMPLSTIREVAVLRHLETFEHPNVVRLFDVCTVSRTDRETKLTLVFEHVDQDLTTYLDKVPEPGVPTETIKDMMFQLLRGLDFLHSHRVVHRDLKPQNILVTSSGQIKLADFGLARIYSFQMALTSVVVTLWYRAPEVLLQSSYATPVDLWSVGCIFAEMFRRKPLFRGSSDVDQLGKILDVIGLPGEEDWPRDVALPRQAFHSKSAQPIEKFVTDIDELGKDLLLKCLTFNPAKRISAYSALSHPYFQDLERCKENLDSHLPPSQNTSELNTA
Chain of CDK6/Cyclin D3 (P30281 whole entry partner): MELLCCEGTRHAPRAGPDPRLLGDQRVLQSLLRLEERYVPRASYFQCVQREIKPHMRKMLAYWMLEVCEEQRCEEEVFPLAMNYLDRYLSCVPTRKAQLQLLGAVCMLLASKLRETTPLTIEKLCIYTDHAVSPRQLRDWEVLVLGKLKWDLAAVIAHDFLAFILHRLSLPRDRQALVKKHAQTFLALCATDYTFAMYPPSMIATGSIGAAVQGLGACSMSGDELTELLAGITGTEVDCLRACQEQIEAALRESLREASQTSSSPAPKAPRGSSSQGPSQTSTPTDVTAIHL

A further experiment has as its system MCF-7 cells. As to the kind of experiment: Cell Growth Inhibition, MCF-7 (CellTiterGlo, 6 days). In kind it is cell-based. The conditions noted are these: Homo sapiens, MCF7, 144 h, MCF-7, 6-day treatment. An outline of the steps: (§1)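 MCF-7 (ER+ breast adenocarcinoma) or CCNE1-amplified OVCAR-3 cells, 500/well in RPMI with 10% FBS, treated with half-log dilutions typically 10-10,000 nM for 6 days at 37 °C. CellTiterGlo 2.0 luminescence gave % growth inhibition versus control; IC50 by four-parameter variable-slope fit.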

A further experiment has as its system OVCAR-3 cells. In words: Cell Growth Inhibition, OVCAR-3 (CellTiterGlo, 6 days). The class given is cell-based. The conditions noted are these: Homo sapiens, 144 h, OVCAR-3, 6-day treatment. An outline of the steps: as §1
(In general: Cellular ATP, detected with luciferase, serves as a proxy for viable cell number.)

The target in experiment [2] is T1, CDK4/Cyclin D1. As to the kind of experiment: CDK4/Cyclin D1 CHEF Assay (AQT0258 peptide). In kind it is biochemical. The conditions noted are these: 200 uM ATP, read-out: CDK4/ CyclinD1 AQT IC50. An outline of the steps:
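Sox-labelled peptide AQT0258 phosphorylation read as chelation-enhanced fluorescence (ex 360/em 485 nm) with Mg(II). Enzyme preincubated with inhibitor 30 min at 22°C, substrate added, 3 h at 22°C; IC50 from four-parameter fit of fractional velocity versus inhibitor concentration.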

Consider `CS(=O)(=O)N1CCC(Nc2ncc3ccnc(N4CCN(C5CC5)CC4)c3n2)CC1` [Compound 1, 8-(4-cyclopropylpiperazin-1-yl)-N-(1-(methylsulfonyl)piperidin-4-yl)pyrido[3,4-d]pyrimidin-2-amine], for which the IC50 was 500 to 2000 nM at CDK1/Cyclin B1; below 200 nM at CDK2/Cyclin E1; below 200 nM on CDK4/Cyclin D1 [1]; 200 to 500 nM at CDK6/Cyclin D3; 500 to 2000 nM with MCF-7 cells; above 2000 nM in the experiment with OVCAR-3 cells.

On to `CS(=O)(=O)N1CCC(Nc2ncc3ccnc(N4CCC5(C4)CC5(F)F)c3n2)CC1` (stereo not drawn) [Compound 3, 8-(1,1-difluoro-5-azaspiro[2.4]heptan-5-yl)-N-(1-(methylsulfonyl)piperidin-4-yl)pyrido[3,4-d]pyrimidin-2-amine], for which the IC50 on CDK1/Cyclin B1 was below 200 nM; at CDK2/Cyclin E1, below 200 nM; at CDK4/Cyclin D1 [1], below 200 nM; at CDK6/Cyclin D3, below 200 nM; in the experiment with MCF-7 cells, 500 to 2000 nM; in the experiment on OVCAR-3 cells, below 200 nM.

For `CS(=O)(=O)N1CCC(Nc2ncc3ccnc(N4CC5(C4)CN(C4CC4)C5)c3n2)CC1` [Compound 8, 8-(6-cyclopropyl-2,6-diazaspiro[3.3]heptan-2-yl)-N-(1-(methylsulfonyl)piperidin-4-yl)pyrido[3,4-d]pyrimidin-2-amine], the IC50 on CDK1/Cyclin B1 was 200 to 500 nM; at CDK4/Cyclin D1 [1] it was below 200 nM; with MCF-7 cells, 500 to 2000 nM; in the experiment with OVCAR-3 cells it was below 200 nM.

On to `CN1CCN(c2ccc(Nc3ncc4ccnc(N5CCC6(CCN(S(C)(=O)=O)C6)C5)c4n3)cc2)CC1` (stereo not drawn) [Compound 9, N-(4-(4-methylpiperazin-1-yl)phenyl)-8-(7-(methylsulfonyl)-2,7-diazaspiro[4.4]nonan-2-yl)pyrido[3,4-d]pyrimidin-2-amine], for which the IC50 is 200 to 500 nM on CDK1/Cyclin B1, below 200 nM at CDK4/Cyclin D1 [1], 500 to 2000 nM in the experiment on MCF-7 cells and 500 to 2000 nM in the experiment on OVCAR-3 cells.

Turning to `CCN1CC2(C1)CN(c1ccc(Nc3ncc4ccnc(N5CCC6(C5)CC6(F)F)c4n3)nc1)C2` (stereo not drawn) [Compound 21, 8-(1,1-difluoro-5-azaspiro[2.4]heptan-5-yl)-N-(5-(6-ethyl-2,6-diazaspiro[3.3]heptan-2-yl)pyridin-2-yl)pyrido[3,4-d]pyrimidin-2-amine], the IC50 at CDK1/Cyclin B1 is above 2000 nM; at CDK2/Cyclin E1, 200 to 500 nM; on CDK4/Cyclin D1 [1] it was below 200 nM; at CDK6/Cyclin D3, below 200 nM.

Regarding `Cc1cc2cnc(NC3CCN(S(=O)(=O)CC4CCCC4)CC3)nc2c(N2CC3(CCNC3)C2)n1` [Example 51, N-(1-((cyclopentylmethyl)sulfonyl)piperidin-4-yl)-6-methyl-8-(2,6-diazaspiro[3.4]octan-2-yl)pyrido[3,4-d]pyrimidin-2-amine], the IC50 on CDK1/Cyclin B1 was 500 to 2000 nM; on CDK2/Cyclin E1, below 200 nM; at CDK4/Cyclin D1 [2], below 200 nM; at CDK6/Cyclin D3 it was 200 to 500 nM; with MCF-7 cells it was 500 to 2000 nM; in the experiment with OVCAR-3 cells, 500 to 2000 nM.

With `CS(=O)(=O)N1CCC(Nc2ncc3cc(C4CC4)nc(N4CC(F)(F)C5(CNC5)C4)c3n2)CC1` [Example 60, 6-cyclopropyl-8-(8,8-difluoro-2,6-diazaspiro[3.4]octan-6-yl)-N-(1-(methylsulfonyl)piperidin-4-yl)pyrido[3,4-d]pyrimidin-2-amine], the IC50 at CDK1/Cyclin B1 is below 200 nM; at CDK2/Cyclin E1, below 200 nM; on CDK4/Cyclin D1 [2], below 200 nM; on CDK6/Cyclin D3, below 200 nM; in the experiment with MCF-7 cells, 500 to 2000 nM; with OVCAR-3 cells, above 2000 nM.

In the case of `Cc1cc2cnc(NC3CCN(S(=O)(=O)C4CC4)CC3)nc2c(N2CC(F)(F)C3(CNC3)C2)n1` [Example 62, N-(1-(cyclopropylsulfonyl)piperidin-4-yl)-8-(8,8-difluoro-2,6-diazaspiro[3.4]octan-6-yl)-6-methylpyrido[3,4-d]pyrimidin-2-amine], the IC50 on CDK1/Cyclin B1 is below 200 nM; at CDK2/Cyclin E1, below 200 nM; on CDK4/Cyclin D1 [2], below 200 nM; at CDK6/Cyclin D3, below 200 nM; in the experiment with MCF-7 cells it was 500 to 2000 nM; in the experiment with OVCAR-3 cells it was 500 to 2000 nM.
